{"source": "patent US6949507B2", "about": "“Use of agents which bind G proteins for treating septic shock” (Dana-Farber Cancer Institute, Inc., priority 1997, dated 2005)", "key": {"[1]": {"system": "LPS-induced lethal endotoxic shock", "test": "LPS-induced lethal endotoxic shock in rats", "format": "in vivo, Wistar rats", "protocol": "Wistar rats (200 g) were obtained from Charles River Laboratories. Rats were treated with 3 mg/kg mastoparan by intravenous injection in the tail vein, immediately followed by 15 mg/kg lead acetate and 5 μg/kg LPS 0111:B4 intravenously. Mortality was assessed up to 96 hours following LPS treatment. Mortality frequency was compared by Fisher exact test and statistical analysis was performed using Yates corrected Chi square test.\nTo determine the effect of mastoparan in vivo, the effect of mastoparan on LPS-induced lethal endotoxic shock in rats was assessed."}, "p38 MAP kinase": {"system": "p38 MAP kinase", "test": "LPS-induced p38 MAP kinase phosphorylation / nuclear translocation (immunoblotting)", "format": "cell-based, human", "protocol": "(§1) For detection of p38, phosphorylated p38 and phosphorylated Erk kinases in monocyte lysates, monocytes were subjected to various treatments and lysed in boiling reducing Laemmli sample buffer. The lysates were subjected to electrophoresis through a 10% SDS PAGE gel and were then transferred to nitrocellulose (NC). After washing twice with TBS-Twwen 20(0.1%) the NC was placed in a solution of Ponceau S dye to ensure equal loading and left in blocking buffer [1×TBS; […]; 5% milk] for 1 hour. After blocking and washing, the NC was incubated with anti-p38 N+C terminus (Santa Cruz Biotechnology Inc., Santa Cruz, Calif.) for 2-3 hours or with anti-phosphorylated p38 and Erk antibodies (New England Biolabs, Inc., Beverly, Mass.) for 18 hours. Membranes were washed three times in TBS-Tween 20 and were incubated for 30 minutes with horseradish peroxidase conjugated donkey-α-rabbit antibody in blocking buffer (Amersham Corp., Arlington Heights, Ill.). Membranes were washed an additional six times [3×TBS-Tween-20; 3×TBS], and were developed by exposure to ECL chemicals (Amersham corp., Arlington Heights, Ill.) and visualized by exposure to film.\nFor detection of p38 in nuclear extracts, cells after a variety of treatments were subject to lysis and nuclear extraction as described in Lerder et al., J. Immunol. 152:77-86 (1994). The nuclear extracts were subjected to protein quantitation by Micro BCA assay (Pierce, Rockford, Ill.) using a BSA standard. The details of the blotting procedure were the same as above except that […] of extract was used.\nBecause mastoparan had profound effects on cytokine production and p38 MAP kinase is involved,in LPS induced-signaling, the effect of mastoparan on MAP kinase activation was evaluated. For full activation, p38 MAP kinase requires phosphorylation on both threonine and tyrosine residues (Raingeaud et al., J. Biol. Chem., 270: 7420-7426, 1995). Detection of dual-phosphorylated p38 MAP kinase by monoclonal antibodies specific for the dual-phosphorylated form of p38 was used as a measure of p38 activation. […]"}, "human monocytes [2]": {"system": "human monocytes", "test": "LPS-induced IL-6 and TNF production from freshly isolated human monocytes (ELISA)", "format": "cell-based", "from_the_text": "(§2) Freshly isolated human peripheral blood mononuclear cells (PBMC) and monocytes were obtained from leukopaks (discarded leukocyte from platelet donations). The cells were fractionated on FICOLL-HYPAQUE™ gradients, washed, treated with tris-buffered NH4Cl to eliminate RBCs and washed to obtain PMBCs. Monocytes were obtained by depleting the PBMCs of T cells and NK cells by negative selection asking standard techniques. T cells and NK cells were removed by treatment with anti-CD3 and anti-CD2 monoclonal antibodies followed by goat anti-mouse Ig conjugated magnetic beads at a 10:1 bead:cell ratio. The monocyte preparations were at least 80-85% monocytes, as determined by anti-CD14 staining and forward and slide light scatter analysis using a FACScan (Becton-Dickenson, Elmhurst, Ill.). Less than 2% of the contaminating cells in the monocyte preparation were T cells and no NK cells could be detected. Monocytes were maintained in Ham's F-12 10% FCS, L-Glutamine and penicillin/streptomyocin at 37° C. in 5% CO2.\n(§3) Freshly isolated human monocytes, human PBMC and U373-CD14 cells were incubated with 10 ng/ml LPS (E coli 0111:B4, Sigma, St. Louis, Mo.), 100 ng/ml PMA or were untreated in supplemented RPMI [10% FCS; 2 mM L-glutamine and penicillin/streptomycin] with or without various concentrations of mastoparan for 18 hours at 37° C. in 24 well tissue culture dishes. IL-6 and TNF-α levels were determined by ELISA (Endogen Inc., Boston, Mass.) of supernatants harvested at 4 hours (for TNF-α) and at 18 hours (for IL-6) after LPS stimulation.\n(§4) In order to determine if the effect of mastoparan on LPS-induced cytokine production was due to a direct effect on monocytes, a highly enriched monocyte population was tested for the effect of LPS and mastoparan on cytokine production from these cells. Freshly isolated human monocytes were treated with mastoparan and LPS, after which IL-6 and TFN cytokine levels were measured in the tissue culture supernatants of the cells (FIG. 3A). […] When mastoparan was used in conjunction with LPS, cytokine production was diminished. […] Mastoparan had little effect on cytokine production from PMA stimulated cells (FIG. 3B), indicating the specificity of mastoparan action, and lack of mastoparan toxicity. Mastoparan had no effect on cell viability as measured by trypan blue uptake even after 36 hours of continuous mastoparan incubation."}, "human monocytes [3]": {"system": "human monocytes", "test": "Cell viability by trypan blue uptake", "format": "cell-based", "conditions": "after 36 hours of continuous mastoparan incubation", "protocol": "as §4"}, "human monocytes [4]": {"system": "human monocytes", "test": "PMA-induced cytokine production from human monocytes", "format": "cell-based", "conditions": "100 ng/ml PMA", "protocol": "as §3, §4"}, "human PBMCs": {"system": "human PBMCs", "test": "LPS-induced IL-6 production from human PBMCs (ELISA)", "format": "cell-based", "conditions": "for inhibition of LPS-induced IL-6 production: LPS stimulated human PBMCs, 10 ng/ml LPS, IL-6 at 18 hours", "from_the_text": "as §2, §3\nFreshly isolated PBMCs were treated with LPS and/or peptides (mastoparan or the MAS-17 control peptide) and IL-6 levels were measured in the tissue culture supernatants of the cells (FIG. 2). PBMCs produced IL-6 in response to LPS, while neither mastoparan nor MAS-17 stimulated IL-6 production from the PBMCs."}, "U373-CD14 cells": {"system": "U373-CD14 cells", "test": "LPS-induced IL-6 production from U373-CD14 transfectants", "format": "cell-based", "protocol": "U373 cell CD14 transfectants (U373-CD14) were maintained in EMEM supplemented with 10% FCS, L-Glutamine and penicillin/streptomyocin at 37° C. in 5% CO2.\nas §3\nIn addition, the effect of mastoparan on LSP-induced cytokine production from an LPS responsive, CD14 transfected cell line was determined. LPS treatment of U373-CD14 transfectants induced an LPS dose-dependent production of IL-6 (FIG. 4). […] IL-6 production induced by 10 ng/ml LPS was also ablated by treatment of the cells with mastoparan, while at 100 ng/ml of LPS, mastoparan reduced IL-6 levels by approximately one third. At high concentrations of LPS (1 μg/ml) the IL-6 responses of these cells were not inhibited by treatment with the anti-CD14 monoclonal antibody. […] At LPS concentrations of 1 μg/ml, mastoparan was ineffective at reducing cytokine responses from these cells. Thus, CD14-independent LPS signals were not inhibited by mastoparan."}, "Erk kinases": {"system": "Erk kinases", "test": "Erk 1 and 2 MAP kinase activation in human monocytes (immunoblotting)", "format": "cell-based", "protocol": "as §1\nThe lack of substantial LPS-induced Erk kinase phosphorylation in freshly isolated monocytes is consistent with results obtained with other non-transformed human cells (Nick et al., J. Immunol., 156: 4867-4875, 1996). […]"}, "[5]": {"conditions": "3 mg/kg mastoparan i.v. + lead acetate + 5 μg/kg LPS, dead/total"}, "[6]": {"conditions": "LPS-stimulated, various concentrations of mastoparan (FIG. 3A)"}}, "note": "“Also recorded” adds a separate entry of the source."}
{"substance": "mastoparan", "values": [{"measurement": "Mortality Total (%)", "setting": "[1]; 3 mg/kg mastoparan i.v. + lead acetate + 5 μg/kg LPS", "result": 44.4, "unit": "%"}, {"measurement": "Mortality 14 hours", "setting": "[1]; [5]", "result": "7/18"}, {"measurement": "Mortality 24 hours", "setting": "[1]; [5]", "result": "8/18"}, {"measurement": "protection from LPS induced mortality", "setting": "[1]; 3 mg/kg mastoparan i.v., 15 mg/kg lead acetate and 5 μg/kg LPS i.v., p<0.05 at 14 and 24 hours", "result": "significantly protect"}, {"measurement": "mortality at 96 hours relative to the 24 hour point", "setting": "[1]; experiment continued for 96 hours", "result": "unchanged"}, {"measurement": "toxic effects when used alone in the model system", "setting": "[1]; mastoparan alone, data not shown", "result": "did not have any toxic effects"}, {"measurement": "LPS-induced p38 MAP kinase activity", "setting": "p38 MAP kinase; FIG. 5B", "result": "reduces"}, {"measurement": "LPS-induced phosphorylation of p38 MAP kinase", "setting": "p38 MAP kinase; monocytes and PBMC", "result": "inhibition; also recorded: reduced"}, {"measurement": "LPS-induced nuclear translocation of p38", "setting": "p38 MAP kinase; nuclear extracts", "result": "inhibited"}, {"measurement": "inhibition of IL-6 production in human monocytes", "setting": "human monocytes [2]; [6]", "result": "dose-dependent inhibition"}, {"measurement": "inhibition of TNF-α production in human monocytes", "setting": "human monocytes [2]; [6]", "result": "dose-dependent inhibition"}, {"measurement": "LPS-induced cytokine production", "setting": "human monocytes [2]; human monocytes, 13.34 μM mastoparan", "result": "totally ablated"}, {"measurement": "IL-6 production induced by mastoparan alone", "setting": "human monocytes [2]; human monocytes, without LPS", "result": "induced neither"}, {"measurement": "TNF production induced by mastoparan alone", "setting": "human monocytes [2]; human monocytes, without LPS", "result": "induced neither"}, {"measurement": "reduction of IL-6 production in monocytes stimulated with LPS", "setting": "human monocytes [2]; mastoparan as low as 1.67 μM", "result": "dramatic reductions"}, {"measurement": "reduction of TNF production in monocytes stimulated with LPS", "setting": "human monocytes [2]; mastoparan as low as 1.67 μM", "result": "dramatic reductions"}, {"measurement": "LPS-induced cytokine production from human monocytes", "setting": "human monocytes [2]; mastoparan in conjunction with LPS, concentration not given", "result": "inhibition; also recorded: diminished"}, {"measurement": "cell viability as measured by trypan blue uptake", "setting": "human monocytes [3]", "result": "no effect"}, {"measurement": "cytokine production from PMA stimulated cells", "setting": "human monocytes [4]", "result": "little effect"}, {"measurement": "inhibition of LPS-induced IL-6 production", "setting": "human PBMCs", "result": "potent inhibitor"}, {"measurement": "inhibition of LPS-induced IL-6 production", "setting": "human PBMCs; listed as mastoparan", "result": "inhibits; also recorded: dose-dependent"}, {"measurement": "LPS-induced IL-6 production", "setting": "human PBMCs; human PBMCs, 13.3 μM mastoparan", "result": "totally ablated"}, {"measurement": "IL-6 production stimulated by peptide alone", "setting": "human PBMCs; human PBMCs, peptide without LPS", "result": "neither"}, {"measurement": "IL-6 production induced by LPS", "setting": "U373-CD14 cells; U373-CD14 cells, 10 ng/ml LPS", "result": "ablated"}, {"measurement": "reduction of IL-6 levels", "setting": "U373-CD14 cells; U373-CD14 cells, 100 ng/ml LPS", "result": "approximately one third"}, {"measurement": "IL-6 / cytokine responses at high LPS (CD14-independent)", "setting": "U373-CD14 cells; U373-CD14 cells, 1 μg/ml LPS", "result": "ineffective"}, {"measurement": "CD14-dependent LPS induced signal transduction", "setting": "U373-CD14 cells; U373-CD14 transfected cells (FIG. 4)", "result": "inhibits"}, {"measurement": "Erk kinase activation induced by LPS", "setting": "Erk kinases", "result": "specific inhibition; also recorded: completely inhibited"}, {"measurement": "Erk kinase activation induced by PMA", "setting": "Erk kinases", "result": "minimal effects"}]}
